Laboratory results: patent US5627215A, “Unsaturate amino compounds for use as anticancer and antiprotozoic agent” (Ciba-Geigy Corporation, priority 1993, dated 1997)
Where a name gives a salt, the structure may show the parent alone. Read-outs that look alike come from different tables or passages of the source.

How the values were obtained:
[1] = system: mouse ascites L1210 leukaemia cells; assay: Levels of putrescine, spermidine and spermine (polyamine pools) in mouse ascites L1210 leukemia cells (method of Porter et al., HPLC); assay type: cell-based; conditions: 48 h incubation; for activity at 10 µM: test compound 10 μM; for activity at 5 µM: test compound 5 μM
Procedure: Mouse ascites L1210 leukaemia cells are cultured (at 37° C.) in RPMI-1640 medium (which contains, per litre, 100 mg of Ca(NO3)2,400 mg of KCl, 100 mg of MgSO4.7H2 O, 6000 mg of NaCl, 2000 mg of NaHCO3, 801 mg of Na2 HPO4, 242 mg of L-Arg.HCl, 50 mg of L-Ash, 20 mg of L-Asp, 50 mg of L-Cys, 300 mg of L-Gln, 20 mg of L-Glu, 10 mg of Gly, 18.2 mg of L-His.HCl.H2 O, 20 mg of L-hydroxyproline, 50 mg of L-Leu, 40 mg of L-Lys.HCl, 15 mg of L-Met, 15 mg of L-Phe, 20 mg of L-Pro, 30 mg of L-Ser, 20 mg of L-Thr, 5 mg of L-Trp, 20 mg of L-Tyr, 20 mg of L-Vat, 1 mg of […], 0.2 mg of biotin, 3 mg of choline chloride, 1 mg of folic acid, 35 mg of i-inositol, 1 mg of nicotinamide, 0.25 mg of pantothenoic acid calcium salt, 1 mg of pyridoxine.HCl, 0.2 mg of riboflavin, 1 mg of thiamine. HCl, 0.005 mg of vitamin B12, 2000 mg of glucose, 1 mg of glutathione, and 5 mg of phenol red), which also contains 2 % 4-(2-hydroxyethyl)-1-piperazineethanesulfonic acid/3-(N-morpholino)propanesulfonic acid, 1 mM aminoguanidine and 10% NuSerum (Collaborative Research Inc., Lexington, Mass.). The cells are cultured under a humid 5% carbon dioxide atmosphere at 37° C. either in glass culture tubes (2 ml) or in 25 or 75 cm^2 tissue culture bottles in a total volume of 15 or 50 ml, respectively. The cultures are treated with the compounds of formula I or with 0.1 mM spermidine (controls: without corresponding compounds) during the logarithmic growth phase (0.5 to 1×10^5 cells/ml). The number of cells is measured by electronic particle counting (Model ZF Coulter Counter, Coulter Electronics, Hialeah, Fla.) and confirmed from time to time by haemocytometer measurements. The viability of the cells is measured by trypan blue exclusion measurement (0.5% in unbuffered 0.9% sodium chloride solution ).
For polyamine determination, the cell samples are washed twice in cold PBS (="Phosphate Buffered Saline"--contains per litre 8000 mg of NaCl, 200 mg of KCl, 1150 mg of Na2 HPO4.2H2 O, 200 mg of KH2 PO4, 100 mg of MgCl2.H2 O, 200 mg of MgSO4.H2 O and CaCl2; pH 7.2), and an aliquot of 10^7 cells is removed for polyamine determination. The cells are formed into a pellet, and the PBS supernatant is removed carefully using a cotton wool swab. The pellet containing the cells is then maintained together with 0.5 ml of 0.6M perchloric acid for 30 minutes at 4° C. and is then centrifuged for 3 minutes at 12,000 g using a microcentrifuge. The supernatant is frozen at -20° C. until the HPLC analysis. For that purpose, the polyamines in a 50 μl sample of the perchloric acid extract are separated over an HPLC system using a glass "Microbore Column" having a diameter of 2.8 mm, which is packed to a height of 2 cm with TLC-4A-cationexchange resin (Durrum Chemical Corp., Palo Alto, Calif.). The column temperature is maintained at 65° C. by means of a water bath with circulating water. The column is eluted at a flow rate of 16 ml/h with an initial column pressure of 34.45 bar, which decreases as the ionic strength of the elution buffer increases. Buffer 1 (which contains 0.2M boric acid, 0.5M NaCl, 0.03% Brij 35 (polyoxyethylene monolauryl ether, the number of ethyleneoxy radicals is approximately 23; Pierce Chemical Co., Rockford, Ill.) and 0.0001% octanoic acid, pH adjusted to 6.0 with saturated KOH) is flushed through the column for 4 minutes. Buffer 2 (which contains 0.2M boric acid, 2.15M NaCl, 0.03% Brij 35 and 0.0001% octanoic acid, pH adjusted as above) is pumped through for 6 minutes. Buffer 3 (which contains 0.2M boric acid, 2.9M NaCl and 0.0001% octanoic acid (pH adjusted as above)) is likewise applied for 6 minutes. The column is re-equilibrated for 10 minutes with buffer 1, before the next sample is introduced. The column eluate is derivatised with 0.05% o-phthalaldehyde (Durrum Chemical Corp.) in 0.4M borate buffer (pH 10.4)/1 mM 2-mercaptoethanol/0.09% Brij 35. The flow rate for o-phthalaldehyde is 8 ml/h. […]

[2] = system: human T24 bladder carcinoma cells; assay: Inhibition of growth of human T24 bladder carcinoma cells (methylene blue staining, 5 days); assay type: cell-based; conditions: 120 h, Eagle's minimal essential medium, 5 days incubation
Procedure: The carcinoma cells (1000-1500) are transferred to 96-well microlitre plates and are incubated overnight under the said conditions. The test compound is added in serial dilutions on day 1. The plates are incubated under the said conditions for 5 days. During that period, control cultures undergo at least 4 cell divisions. After incubation, the cells are fixed with 3.3% (weight/volume=w/v) aqueous glutaraldehyde solution, washed with water and stained with 0.05% (w/v) aqueous methylene blue solution. After washing, the dye is eluted with 3% (w/v) aqueous hydrochloric acid. The optical density (OD) per well, which is directly proportional to the number of cells, is then measured by means of a photometer (Titertek multiskan) at 665 nm. The IC50 values are calculated by means of a computer system using the formula [formula] The IC50 value is defined as the concentration of active ingredient at which the number of cells per well at the end of the incubation period is only 50% of the number of cells in the control cultures. Inhibition of growth of human T24 bladder carcinoma cells: Using the method for inhibition of growth of human T24 bladder carcinoma cells om Eagle's minimal essential medium (see above), the following test results are obtained (given as IC50 =concentration of the active ingredient at which the number of cells per well at the end of the incubation period is only 50% of the number of cells in the control cultures): […]

[3] = read-out: level of putrescine (PU), % of the respective control
[4] = read-out: level of spermidine (SPD), % of the respective control
[5] = read-out: level of spermine (SPM), % of the respective control

SMILES	activity at 10 µM [1, 3]	activity at 10 µM [1, 4]	activity at 10 µM [1, 5]	IC50 [2]	activity at 5 µM [1, 3]	activity at 5 µM [1, 4]	activity at 5 µM [1, 5]
CCCNCCCNC/C=C/CNCCCNCCC [Example 1, (E)-1,14Di-propyl-1,5,10,14-tetraazatetradec-7-ene tetrahydrochloride]	9.4%	12%	67%	640 nM			
CCCCNCCCNC/C=C/CNCCCNCC [Example 8, (E)-1-Butyl-14-ethyl-1,5,10,14-tetraazatetradec-7-ene tetrahydrochloride]	4.8%	0.2%	4%	550 nM			
CCCCNCCCNC/C=C/CNCCCNCCCC [Example 3, (E)-1,14-Di-butyl-1,5,10,14-tetraazatetradec-7-ene tetrahydrochloride]				8200 nM			
CCCNCCCNC/C=C/CNCCCNCC [Example 9, (E)-1-Ethyl-14-propyl-1,5,10,14-tetraazatetradec-7-ene tetrahydrochloride]	6.9%	2%	19%	1100 nM			
C=CCNCCCNC/C=C/CNCCCNCC=C [Example 2, (E)-1,14-Di-allyl-1,5,10,14-tetraazatetradec-7-ene tetrahydrochloride]	16%	3.1%	36%	600 nM			
C=CCNCCCNC/C=C/CNCCCNCC [Example 6, (E)-1-Ally-14-ethyl-1,5,10,14-tetraazatetradec-7-ene tetrahydrochloride]	4.1%	2.1%	12%	3000 nM			
C=CCNCCCNC/C=C/CNCCCNCCC [Example 13, (E)-1-Allyl-14-propyl-1,5,10,14-tetraazatetradec-7-ene tetrahydrochloride]	0%	1.3%	25%	2140 nM			
C(=C\CNCCCNCC1CC1)/CNCCCNCC1CC1 [Example 16, (E)-1,14-Di-cyclopropylmethyl-1,5,10,14-tetraazatetradec-7-ene tetrahydrochloride]	12%	24%	62%	920 nM			
CCNCCCNC/C=C/CNCCCNCC [Example 5, (E)-1,14-Di-ethyl-1,5,10,14-tetraazatetradec-7-ene tetrahydrochloride]					4.1%	2.1%	30%
